# Read-outs that look alike come from different tables or passages of the source.
# Tested on: MatTek 300 skin (a skin model constructed from live cells)
# Test: Penetration study using MatTek skin, formulation with vs without cellulose nanofibers, UPLC analysis
# Type: in vitro ADME
# Procedure: A testing formulation with and without nanocellulose and various skin care actives was prepared. The formulation was prepared by mixing the Phase I components until all of the solids were dissolved (e.g., about 10-15 min). The Phase 2 components were added to the Phase 1 components and mixed until lump free (e.g., about 10 min). The Phase 3 components were pre-mixed until lump free and slowly added to the initial mixture and mixed until uniform (e.g., about 30 min). The Phase 4 components were mixed until uniform and slowly added to the initial mixture and mixed to uniformity (e.g., about 15-20 min). The Phase 5 components were premixed and then added to the mixture and mixed until uniform (e.g., about 15-20 min). The Phase 6 components were added to the mixture under Silverson to adjust the pH to about 5.5 to 6.5 to increase the stability of the AA2G and mixed until lump free (e.g., about 15-20 min). A penetration study was then performed using the base formula without nanocellulose as a control. […] In a 6-well plate, MatTek 300 skin (a skin model constructed from live cells, obtained from MatTek) was placed in the well with 2.00 mL of incubation medium (also provided by MatTek). The medium was removed, and 2.0 mL of phosphate buffer saline/propandiol (PBS/PPD) 1:1 mixture was added. The PBS/PPD mixture was then removed. This washing process was repeated twice. Then 2.0 mL of the PBS/PPD mixture was added as the collection phase. To the top of each skin, 400 μl of a sample was loaded. The skin was then incubated at 37° C. for 72 hours. Finally, the PBS/PPD collection phase was filtered through 0.45 μm PTFE syringe filter into high performance liquid chromatography (HPLC) vials. Waters ACQUITY H ultra-performance liquid chromatography (UPLC) was used to analyze the collected samples from the penetration study.
compound,measurement,setting,value
"O=C1O[C@H]([C@@H](O)CO)C(O)=C1O[C@H]1O[C@H](CO)[C@@H](O)[C@H](O)[C@H]1O [AA2G, ascorbic acid 2-glucoside]","penetration efficacy, formulation with cellulose nanofibers vs without (in words)",,significantly enhanced
"CC1=C(/C=C/C(C)=C/C=C/C(C)=C/CO)C(C)(C)CCC1 [Retinol, reference compound]","penetration within the skin, composition with nanocellulose vs without (in words)",,reduced
same,rate of release from composition with nanocellulose (in words),,slower rate of release
COc1ccc(CCCc2ccc(O)cc2O)c(OC)c1C [UP302],"penetration efficacy, formulation with cellulose nanofibers vs without (in words)","MatTek 300 skin, 37° C., 72 hours, PBS/PPD collection phase","modulated, reduced, and limited"
O=C(c1ccccc1)c1ccccc1 [benzophenone],"penetration efficacy, composition with nanocellulose vs without (in words)","benzophenone 4% (w/w of the total composition), sunscreen formulations",directionally reduced
OCCOc1ccccc1 [phenoxyethanol],"penetration efficacy, composition with nanocellulose vs without (in words)",,not increased

# From patent US20230022705A1, “Topical Delivery System Containing Cellulose Nanofibers” (ELC Management LLC, priority 2019, published 2023)
